For orientation: melting point means the temperature of the solid-liquid transition.

In the case of `CCC1c2cccn2-c2cccc(C)c2N1S(=O)(=O)c1ccc(O)cc1` (stereo unspecified), the melting point is 165 to 167 °C.
Regarding `CCCC1CCC(C2(N=C=S)C=CC(CC)=CC2)CC1` (stereo unspecified), the melting point was 43 °C.
Under `CCC1=Nc2cc(CO)ccc2C(=O)C1` stands 254 to 257 °C; under `CCn1c(=O)c2c(nc(/C=C/c3cc(OC)c(OC(=O)c4ccccc4)c(OC)c3)n2C)n(CC)c1=O`, 196 °C.
`C=CCc1c(F)c(F)c(NN)c(F)c1F`: the melting point fell in the range of 79 to 81 °C.
The compound `CON=Cc1nc2c(N)nc3cc(-c4cccc(CS(N)(=O)=O)c4)ccc3c2s1` displayed a melting point of 254 to 256 °C.
For `COC(=O)C=Cc1cc([N+](=O)[O-])ccc1Cl`, the melting point is 159 to 162 °C.
In turn, `CCNC(=O)n1nc(Oc2ccc(F)cc2[N+](=O)[O-])cc1C` showed a melting point of 81 to 84 °C.
In the case of `COc1ccc(C2CNC(=O)N2C)cc1NC1CC2CCC1C2` (stereo unspecified) it was 171 to 174 °C.
The compound `O=C(Nc1ccccc1)c1ccc2c(c1)S(=O)(=O)NCN2C1CC1` gave a melting point of 268 to 270 °C.
As for `CCOC(=O)c1cc(=O)c2cc3c(c(CC(O)CO)c2o1)CCCC3` (stereo unspecified), the melting point was 142 to 144 °C.
On to `C#CCOc1ccc(S(=O)(=O)C2(C(=O)O)CCN(Cc3ccc(Cl)cc3)CC2)cc1`, for which the melting point was 205 °C.
Under `CNC1C(C)CN(c2c(F)c(N)c3c(=O)c(C(=O)O)cn(C4CC4)c3c2OC)CC1C` (stereo unspecified) stands 224 to 226 °C; under `O=C(O)c1cccc(OCCNC(=O)C2Cc3ccccc3N2S(=O)(=O)c2ccc(-c3cccc(C(F)(F)F)c3)cc2)c1` (stereo unspecified), 85 to 92 °C.
Compound `O=C(O)C1=CCN(c2ncccc2F)CC1` yielded a melting point of 119 to 120 °C.
On to `O=C(O)c1cscc1Br`, for which the melting point was 157 to 158 °C.
Compound `CC(=O)Nc1ccc(C=CC2=NNC(=O)CC2C)cc1` (stereo unspecified) had a melting point of 206 to 207 °C.
For `COc1cc(C=CC(=O)OCCCCBr)ccc1O`, the melting point was in the range of 86 to 89 °C.
Take `COc1ccc(S(=O)(=O)Nc2ccccc2Nc2ccccc2)cc1`: the melting point lay in the range of 140 to 142 °C.
Under `O=C(CO)NCc1ccc2ccn(C3CCN(CCc4ccccc4F)CC3)c2c1` stands 151 to 152 °C; under `CS(=O)(=O)c1ncc2c(n1)N(c1ccccc1)C(=O)N(c1ccccc1Cl)C2`, 186 °C.
Regarding `COc1cccc(Cc2ccc(N)c(C#N)c2)c1`, the melting point was 81 to 82 °C.
As for `OCCCCc1ccc(N2CCOCC2)cc1`, the melting point was in the range of 51 to 52 °C.
Under `Cc1cc(SCc2sc(-c3ccc(C(F)(F)F)cc3)nc2C)cc(C)c1OCC(=O)O` stands 157 to 158 °C; under `COC(=O)c1cc(-c2ccc(S(C)(=O)=O)cc2)n(C2CCCCC2)n1`, 108 °C.
As to `O=Cc1c2n(c3cc(Br)ccc13)CCNCC2`, the melting point was 186 to 188 °C.
For the compound `CNc1nc(N)nc2c1ncn2C1OC(CO)C(O)C1F` (stereo unspecified), the melting point was found to be 172 °C.
In turn, `Nc1ccc(OCc2ccccc2)cc1[N+](=O)[O-]` gave a melting point of 139 to 141 °C.
Under `CC(C)Oc1cc(N2CCC(C(F)(F)F)CC2=O)c(F)cc1Cl` (stereo unspecified) stands 98 to 102 °C.
Regarding `Cc1cc(C)cc(Oc2cc(Br)cc(S(=O)(=O)N3CCN(C(=O)OC(C)(C)C)CC3)c2)c1`, the melting point worked out at 155 °C.
In turn, `COC(=O)Cc1c(C)nn(-c2ccccc2)c1C` gave a melting point of 63 to 64 °C.
`CN(C)CCCNC(=O)[C@@H](Cc1ccc(-c2ccccc2)cc1)NC(=O)CC(C)(C)CC(=O)O` came in with a melting point of 84 to 92 °C.
For the compound `COc1cc2cc(CO)c(CO)c(-c3ccnc(-n4nc(O)c5ccccc5c4=O)c3)c2cc1OC`, the melting point was > 250 °C.
Regarding `CSCC(C)(C)NC(=O)c1c(NC(=O)c2cc(C(F)(F)F)nn2-c2ncccc2Cl)ccc2cn[nH]c12`, the melting point lay within 100 to 105 °C.
`Nc1cc(Cl)cc2c(Cl)ccnc12` gave a melting point of 132 to 134 °C.
`CS(=O)(=O)N1CCC(NC(=O)Nc2cccc(C(F)(F)F)c2)CC1` returned a melting point of 226 to 229 °C.
In the case of `Fc1cccc2nc(S)oc12` it was 232 to 234 °C; in that of `CCCc1c(OCCCc2ccc3cc(OC)c(OC)cc3c2)ccc(C(=O)OCc2ccccc2)c1O`, 94 to 96 °C; in that of `O=C(NCCc1ccccc1)c1ccccc1-c1ccccc1CNS(=O)(=O)c1cccc(C(F)(F)F)c1`, 145 °C.
Take `CN(OCc1ccccc1)S(=O)(=O)c1ccccc1S(N)(=O)=O`: the melting point was in the range of 122 to 128 °C.
In turn, `O=C(O)COc1ccc2c(c1)CCc1sc(SC(c3ccccc3)c3ccccc3)nc1-2` yielded a melting point of 193 to 195 °C.
`FC(F)(F)C(/C=C/c1ccc(-n2cncn2)cc1)c1cc(Cl)cc(Cl)c1` (stereo unspecified) had a melting point of 93 to 97 °C.
With `CC(C)c1ccc(N(Cc2cnn(CCO)c2)C(=O)C2CCCc3c(O)cccc32)cc1` (stereo unspecified), the melting point was 110 to 114 °C.
In the case of `NC(=O)n1c(S(=O)Cc2ccccn2)nc2ccccc21` (stereo unspecified) it was 164 °C.
In turn, `COc1ccc2[nH]cc(/C(C#N)=C/c3cccc(C#N)c3)c2c1` yielded a melting point of 149 °C.
Under `Cc1ccc(C)c(CN2CCN(C)CC(NC(=O)c3n[nH]c4ccccc34)C2)c1` (stereo unspecified) stands 168 to 170 °C.
`O=C(N1c2ccccc2C=Cc2ccccc21)C(F)(F)F` displayed a melting point of 85 to 91 °C.
Compound `C=CCOc1ccc(CCNC(=O)C(F)(F)F)cc1S(=O)(=O)N=CN(C)C` returned a melting point of 92 to 93 °C.
With `CCCCCCCCCCC(Cn1ccnc1)SCCCC` (stereo unspecified), the melting point lay in the range of 95 to 97 °C.
In the case of `CCOc1ccc(C=CC(=O)c2c(OC)cc(OC)cc2OP(=O)(O)O)cc1` it was 63 to 64 °C; in that of `CON(C)C(=O)c1cc(-n2c(=O)cc(C(F)(F)F)[nH]c2=O)c(F)cc1Cl`, > 220 °C; in that of `Nc1c([N+](=O)[O-])cc(C(F)(F)F)cc1[N+](=O)[O-]`, 142 to 144 °C.
Consider `O=C1NC(=S)SC1=Cc1ccc2c(c1)N(OCc1ccc(Cl)c(Cl)c1)C(=O)CO2`, for which the melting point is > 300 °C.
Compound `CC(C)Oc1nc(N)nc2c1ncn2CCC(CO)CO` had a melting point of 112 to 114 °C.
In turn, `FC(F)c1cc(-c2ccc(C(F)(F)F)cc2)nc2cncn12` registered a melting point of 173 °C.
Compound `COc1cc2ncc(C(=O)NCc3ccc(Cl)cc3)c(O)c2cc1OC` gave a melting point of 184 °C.
Under `O=C(O)/C=C(\c1ccccc1)c1ccncc1` stands 239 to 241 °C; under `CCOC(=O)c1csc(/C=C/c2cn(-c3ccccc3)nc2OCc2ccc(OCc3nc(-c4ccco4)oc3C)c(OC)c2)n1`, 156 to 157 °C.
In the case of `CCOC(=O)CCNC(=O)c1cn2nc(NCCCN3CCC(OC(c4ccccc4)c4ccccc4)CC3)ccc2n1`, the melting point fell in the range of 83 to 86 °C.
For `COc1cc(Cl)cnc1OCC#Cc1cc(Cl)ccn1`, the melting point is 129 °C.
In the case of `COC(=O)c1ccc(NS(=O)(=O)c2cc(OCC(F)(F)F)cc(OCC(F)(F)F)c2)cn1` it was 158 to 160 °C.
Under `CC(=O)NC(C(=O)NC(C(=O)NC(Cc1ccccc1)C(O)C(Cc1ccccc1)NC(=O)C(NC(=O)C(NC(C)=O)C(C)C)C(C)C)C(C)C)C(C)C` (stereo unspecified) stands 271 to 272 °C; under `CC(=S)NC[C@H]1CN(c2ccc3c(c2)CCCc2cn[nH]c2-3)C(=O)O1`, 190 to 195 °C; under `CCCn1cc(Cc2ccc(C(=O)O)cc2OC)c2cc(CCCC(=O)N(C)C)ccc21`, 117 to 118 °C.
In the case of `COc1noc2c1CN(C(C)=O)CC2`, the melting point is 40 to 42 °C.
As for `C=C(C)C(=O)OC1c2nccnc2C(=O)N1c1ccc2ccc(Cl)nc2n1` (stereo unspecified), the melting point was determined as 255 °C.
Compound `CC(C)(Cc1ccccc1)C(NC(=O)c1ccc(Cl)cc1)Nc1c(Nc2cccnc2)c(=O)c1=O` (stereo unspecified) showed a melting point of 223 to 224 °C.
Under `COc1ccc(-c2cc(-c3ccc(-c4c(Cc5ccccc5)sc5ccccc45)c(Br)c3)ccc2OCC(=O)O)cc1OC` stands 103 to 105 °C; under `O=c1cc(-c2ccc(OCCO)cc2)oc2ncccc12`, 157 to 159 °C; under `COc1ccc(-c2c(N)cnc3ccc(Cl)cc23)c(OC)c1OC`, 180 to 181 °C.
Under `COc1cccc2c1CCN(C(=O)C(F)(F)F)CC2` stands 74 to 76 °C; under `CNc1cccc(OCc2ccccc2)c1N`, 79 to 81 °C.
For `O=c1ccc(S(=O)(=O)c2oc3ccc(Cl)cc3c2O)n[nH]1`, the melting point is > 240 °C.
In turn, `NS(=O)(=O)c1ccc(-n2nc(C(F)F)cc2-c2nc3ccccc3s2)cc1` displayed a melting point of 247 to 249 °C.
`NC(=O)c1cc(-c2ccc(Cl)cc2)sc1N` gave a melting point of 255 to 257 °C.
The compound `O=CNCCNC1=NS(=O)(=O)c2cc(Cl)ccc2N1` gave a melting point of 245 to 247 °C.
In the case of `CN1[C@H](Cc2ccc(C(N)=NO)cc2)[C@@H]2C(=O)N(Cc3ccccc3)C(=O)[C@@H]2C1(C)C` (racemic), the melting point lay in the range of 189 to 192 °C.
`COc1ccc(CC2c3cc(O)c(OC)cc3CCN2CC2CC2)cc1O` (single isomer, unassigned; (+)): the melting point lay within 70 to 81 °C.
As for `NC(=O)c1ccc(O[C@@H]2CNC[C@H]2O)cc1` (relative stereo), the melting point lay in the range of 202 to 203 °C.
Under `CCCCC(=N)Nc1ccccc1N1CCOCC1` stands 135 to 136 °C; under `CC(C)OC(=O)Nc1ccc2nc(-c3ccccc3)oc2n1`, 210 to 211 °C.
In turn, `COc1c(N2CC3CCC(N)C3C2)c(F)cc2c(=O)n(N)c(=O)n(C3CC3)c12` (stereo unspecified) showed a melting point of 250 to 252 °C.
Compound `CC12CCC(O)CC1CCC1C2CCC2(C)C(C(=O)COc3cccnc3)CCC12` (stereo unspecified) came in with a melting point of 63 to 66 °C.
In turn, `O=c1c2cc(O)c(O)cc2c2cc(O)c(O)cc2n1Cc1ccc(Cl)c(Cl)c1` came in with a melting point of 318 °C.
For the compound `O=C(N[C@@H](Cc1ccc(O)cc1)C(=O)O)C(=Cc1ccccc1)NC(=O)C(F)(F)F`, the melting point was in the range of 165 to 175 °C.
In the case of `CC(C)(C)c1ccc(OP(Oc2ccc(C(C)(C)C)cc2C(C)(C)C)c2cccc3ccccc23)c(C(C)(C)C)c1` it was 125 to 127 °C.

These data come from a melting point compilation (Tetko et al.; mined from patent text by program, amines drawn as free bases though some values may be those of a salt).
